According to the NIST ThermoML archive (doi:10.1021/je4002009):

Assay: mn = molality of the nth substance listed, in mol/kg
Conditions: 101 kPa, Liquid; for viscosity: Capillary tube (Ostwald / Ubbelohde) method

O=C1CCC[NH+]1C1CCCCC1.O=S(=O)([O-])c1ccccc1 [1-cyclohexyl-2-oxopyrrolidin-1-ium benzenesulfonate] + O
Conditions | mass density, 298.15 K [kg/m3] | mass density, 303.15 K [kg/m3] | mass density, 308.15 K [kg/m3] | viscosity, 298.15 K [mPa·s] | viscosity, 303.15 K [mPa·s] | viscosity, 308.15 K [mPa·s]
m1 = 0.0509 | 999.45 | 997.89 | 995.97 | 0.9377 | 0.8235 | 0.7406
m1 = 0.1005 | 1002.85 | 1001.35 | 999.03 | 0.9703 | 0.8645 | 0.7786
m1 = 0.1478 | 1005.4 | 1003.96 | 1001.85 | 1.01 | 0.8892 | 0.8095
m1 = 0.1987 | 1007.93 | 1006.42 | 1004.55 | 1.057 | 0.9268 | 0.8407
m1 = 0.2532 | 1010.59 | 1009.02 | 1007.24 | 1.11 | 0.9692 | 0.8758
m1 = 0.3009 | 1013.05 | 1011.32 | 1009.49 | 1.153 | 1.009 | 0.9088
m1 = 0.3497 | 1015.5 | 1013.84 | 1011.74 | 1.199 | 1.051 | 0.9404
m1 = 0.4013 | 1018.26 | 1016.55 | 1014.3 | 1.247 | 1.097 | 0.9772
m1 = 0.4514 | 1021.07 | 1019.24 | 1016.92 | 1.292 | 1.141 | 1.013
m1 = 0.5008 | 1023.74 | 1022.03 | 1019.52 | 1.337 | 1.181 | 1.046
m1 = 0.5492 | 1026.44 | 1024.55 | 1022.06 | 1.383 | 1.224 | 1.083
m1 = 0.6024 | 1029.39 | 1027.42 | 1024.91 | 1.432 | 1.268 | 1.123
m1 = 0.6506 | 1031.86 | 1029.91 | 1027.47 | 1.479 | 1.309 | 1.163
m1 = 0.7603 | 1037.45 | 1035.1 | 1032.83 | 1.588 | 1.405 | 1.249
m1 = 0.7986 | 1039.18 | 1036.89 | 1034.62 | 1.631 | 1.442 | 1.283
m1 = 0.9023 | 1043.64 | 1041.09 | 1038.92 | 1.736 | 1.535 | 1.373
m1 = 0.9974 | 1047.35 | 1044.52 | 1042.51 | 1.838 | 1.623 | 1.448
m1 = 1.199 | 1054.63 | 1052.23 | 1049.68 | 2.08 | 1.81 | 1.617

Cc1ccc(S(=O)(=O)O)cc1.O=C1CCCN1C1CCCCC1 [1-cyclohexyl-2-pyrrolidinone 4-methylbenzenesulfonate] + O
Conditions | mass density, 298.15 K [kg/m3] | mass density, 303.15 K [kg/m3] | mass density, 308.15 K [kg/m3] | viscosity, 298.15 K [mPa·s] | viscosity, 303.15 K [mPa·s] | viscosity, 308.15 K [mPa·s]
m1 = 0.0502 | 1000.25 | 998.76 | 997.02 | 0.9563 | 0.8427 | 0.7524
m1 = 0.1025 | 1003.22 | 1001.6 | 999.85 | 0.9991 | 0.8853 | 0.7957
m1 = 0.1513 | 1005.86 | 1004.3 | 1002.49 | 1.035 | 0.9171 | 0.8304
m1 = 0.1991 | 1008.58 | 1006.95 | 1005.1 | 1.082 | 0.9514 | 0.8636
m1 = 0.2492 | 1011.41 | 1009.76 | 1007.84 | 1.134 | 0.9897 | 0.8957
m1 = 0.3015 | 1014.32 | 1012.57 | 1010.6 | 1.186 | 1.036 | 0.9333
m1 = 0.3524 | 1017.03 | 1015.23 | 1013.12 | 1.24 | 1.08 | 0.9639
m1 = 0.4007 | 1019.46 | 1017.48 | 1015.41 | 1.289 | 1.123 | 0.9982
m1 = 0.4491 | 1021.74 | 1019.79 | 1017.58 | 1.337 | 1.165 | 1.029
m1 = 0.4976 | 1023.93 | 1021.92 | 1019.7 | 1.383 | 1.207 | 1.066
m1 = 0.5503 | 1026.3 | 1024.26 | 1021.89 | 1.435 | 1.254 | 1.104
m1 = 0.6019 | 1028.47 | 1026.37 | 1023.96 | 1.485 | 1.3 | 1.145
m1 = 0.6492 | 1030.43 | 1028.29 | 1025.85 | 1.537 | 1.344 | 1.184
m1 = 0.7521 | 1034.7 | 1032.51 | 1030.01 | 1.648 | 1.44 | 1.272
m1 = 0.8074 | 1037 | 1034.74 | 1032.32 | 1.715 | 1.497 | 1.323
m1 = 0.9012 | 1040.82 | 1038.55 | 1036.16 | 1.829 | 1.596 | 1.412
m1 = 1.002 | 1044.83 | 1042.52 | 1040.19 | 1.966 | 1.7 | 1.506
m1 = 1.199 | 1051.36 | 1048.95 | 1046.4 | 2.233 | 1.907 | 1.688
